Measured values as given in US20200369728A1, “PEPTIDOMIMETIC MACROCYCLES AND USES THEREOF” (Aileron Therapeutics, Inc., priority 2015, published 2020).
Bridge positions count the residues as written; N and C are the ends. Square brackets hold non-standard residues; d marks the D form. Peptide text beside a SMILES is read from it. S8 = C=CCCCCCC[C@](C)(N)C(=O)O; R5 = C=CCCC[C@@](C)(N)C(=O)O

Experiments:
SJSA-1 = test: Cell viability assay (MTT), SJSA-1; details: read-out: SJSA-1 EC50 (72 h); 72 h, MTT
SJSA-1 cells = test: Cell lysis by peptidomimetic macrocycles (LDH release); assay type: cell-based; details: SJSA-1, 1 h
Outline: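 SJSA-1 cells plated the day before, switched to RPMI with 1% FBS, then exposed 1 h at 37 °C to macrocycle at final 50 μM to 6.25 μM in 0.5% DMSO. LDH released into the supernatant was measured by kit. Controls: 0.5% DMSO (non-lytic), 10 μM melittin and 1% Triton X-100 (lytic).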

Caspase 3 = Caspase 3 detection assay in SJSA1 cells; assay type: cell-based; details: SJSA1, 48 h, Caspase 3 activation over DMSO-treated cells
RKO = test: Cell viability assay (MTT), RKO; details: read-out: RKO EC50 (72 h)

`CC[C@H](C)[C@H](NC(=O)[C@H](C)NC(=O)[C@H](C)NC(=O)[C@]1(C)CCCC=CCCCCCC[C@@](C)(NC(=O)[C@H](Cc2ccccc2)NC(=O)[C@@H](NC(=O)[C@H](CC(C)C)NC(C)=O)[C@@H](C)O)C(=O)N[C@@H](C)C(=O)N[C@@H](Cc2ccc(O)cc2)C(=O)N[C@@H](Cc2c[nH]c3ccccc23)C(=O)N[C@@H](C)C(=O)N[C@@H](CCC(N)=O)C(=O)N[C@@H](CC(C)C)C(=O)N1)C(=O)N[C@@H](C)C(N)=O` (single isomer, unassigned) [compound 65] was tested, and the EC50 (SJSA-1) was less than 5 µM, the “6.25 μM % Lysed cells (1 h LDH)” value (SJSA-1 cells) was 0% and the “25 μM % Lysed cells (1 h LDH)” value (SJSA-1 cells) was 0%. For the same molecule, the “50 μM % Lysed cells (1 h LDH)” value (SJSA-1 cells) was 2%, the “caspase 0.3 μM” value (Caspase 3) was 1 and the “caspase 3 μM” value (Caspase 3) was 6. The “caspase 10 μM” value (Caspase 3) was 28, the “caspase 30 μM” value (Caspase 3) was 34 and the EC50 (RKO) was 5 to 15 µM.
For `CC[C@H](C)[C@H](NC(=O)[C@H](C)NC(=O)[C@H](C)NC(=O)[C@]1(C)CCCC=CCCCCCC[C@@](C)(NC(=O)[C@H](Cc2ccccc2)NC(=O)[C@@H](NC(=O)[C@H](CC(C)C)NC(C)=O)[C@@H](C)O)C(=O)N[C@@H](C)C(=O)N[C@@H](Cc2ccc(O)cc2)C(=O)N[C@@H](Cc2c[nH]c3ccccc23)C(=O)N[C@@H](C)C(=O)N[C@@H](CCC(N)=O)C(=O)N[C@@H](CC(C)C)C(=O)N1)C(=O)N[C@H](C)C(N)=O` (single isomer, unassigned) [compound 70], the EC50 (SJSA-1) was less than 5 µM, the “caspase 3 μM” value (Caspase 3) was 1 and the “caspase 10 μM” value (Caspase 3) was 9. The “caspase 30 μM” value (Caspase 3) was 26 and the EC50 (RKO) was less than 5 µM.
For `CCCC[C@H](NC(=O)[C@H](C)NC(=O)[C@H](C)NC(=O)[C@]1(C)CCCC=CCCCCCC[C@@](C)(NC(=O)[C@H](Cc2ccccc2)NC(=O)[C@@H](NC(=O)[C@H](CC(C)C)NC(C)=O)[C@@H](C)O)C(=O)N[C@@H](C)C(=O)N[C@@H](Cc2ccc(O)cc2)C(=O)N[C@@H](Cc2c[nH]c3ccccc23)C(=O)N[C@@H](C)C(=O)N[C@@H](CCC(N)=O)C(=O)N[C@@H](CC(C)C)C(=O)N1)C(=O)N[C@H](C)C(N)=O` (single isomer, unassigned) [compound 75], the EC50 (SJSA-1) was less than 5 µM, the “6.25 μM % Lysed cells (1 h LDH)” value (SJSA-1 cells) was −1% and the “25 μM % Lysed cells (1 h LDH)” value (SJSA-1 cells) was 1%. The “50 μM % Lysed cells (1 h LDH)” value (SJSA-1 cells) was 1%.
Molecule `CC(=O)N[C@@H](CC(C)C)C(=O)N[C@H](C(=O)N[C@@H](Cc1ccccc1)C(=O)N[C@]1(C)CCCCCCC=CCCC[C@@](C)(C(=O)N[C@@H](C)C(=O)N[C@@H](C)C(=O)N[C@@H](C)C(=O)N[C@@H](C)C(=O)N[C@@H](C)C(=O)N[C@H](C)C(N)=O)NC(=O)[C@H](CC(C)C)NC(=O)[C@H](CCC(N)=O)NC(=O)[C@H](C)NC(=O)[C@H](Cc2c[nH]c3ccccc23)NC(=O)[C@H](Cc2ccc(O)cc2)NC(=O)[C@H](CCC(=O)O)NC1=O)[C@@H](C)O` (single isomer, unassigned) [compound 579] has an EC50 (SJSA-1) of less than 5 µM.
`CC[C@H](C)[C@H](NC(=O)[C@H](C)NC(=O)[C@H](C)NC(=O)[C@]1(C)CCCCCCC=CCCC[C@@](C)(NC(=O)[C@H](Cc2ccccc2)NC(=O)[C@@H](NC(=O)[C@H](CC(C)C)NC(C)=O)[C@@H](C)O)C(=O)N[C@@H](C)C(=O)N[C@@H](Cc2ccc(O)cc2)C(=O)N[C@@H](Cc2c[nH]c3ccccc23)C(=O)N[C@@H](C)C(=O)N[C@@H](CCC(N)=O)C(=O)N[C@@H](CC(C)C)C(=O)N1)C(=O)N[C@H](C)C(N)=O` [compound 234] showed an EC50 (SJSA-1) of less than 5 µM.
In the case of `CC(=O)N[C@@H](CC(C)C)C(=O)N[C@H](C(=O)N[C@@H](Cc1ccccc1)C(=O)N[C@]1(C)CCCCCC/C=C/CCC[C@@](C)(C(=O)N[C@@H](C)C(=O)N[C@@H](C)C(=O)N[C@@H](C)C(=O)N[C@@H](C)C(=O)N[C@@H](C)C(=O)N[C@H](C)C(N)=O)NC(=O)[C@H](CC(C)C)NC(=O)[C@H](CCC(N)=O)NC(=O)[C@H](C)NC(=O)[C@H](Cc2c[nH]c3ccccc23)NC(=O)[C@H](Cc2ccc(O)cc2)NC(=O)[C@H](CCC(=O)O)NC1=O)[C@@H](C)O` [compound 331], the EC50 (SJSA-1) is reported as less than 5 µM, the “6.25 μM % Lysed cells (1 h LDH)” value (SJSA-1 cells) is reported as 0% and the “25 μM % Lysed cells (1 h LDH)” value (SJSA-1 cells) is reported as 0%. For the same molecule, the “50 μM % Lysed cells (1 h LDH)” value (SJSA-1 cells) was 0%, the “caspase 0.3 μM” value (Caspase 3) was 4.5 and the “caspase 1 μM” value (Caspase 3; 1 μM) was 8. For the same molecule, the “caspase 3 μM” value (Caspase 3) was 11, the “caspase 10 μM” value (Caspase 3) was 14.5 and the “caspase 30 μM” value (Caspase 3) was 30.5. The EC50 (RKO) was less than 5 µM.
With `CC(=O)N[C@@H](CC(C)C)C(=O)N[C@H](C(=O)N[C@@H](Cc1ccccc1)C(=O)N[C@]1(C)CCCCCCC=CCCC[C@@](C)(C(=O)N[C@@H](C)C(=O)N[C@H](C)C(=O)N[C@@H](C)C(=O)N[C@@H](C)C(=O)N[C@@H](C)C(=O)N[C@H](C)C(N)=O)NC(=O)[C@H](CC(C)C)NC(=O)[C@H](CCC(N)=O)NC(=O)[C@H](C)NC(=O)[C@H](Cc2c[nH]c3ccccc23)NC(=O)[C@H](Cc2ccc(O)cc2)NC(=O)[C@H](CCC(=O)O)NC1=O)[C@@H](C)O` [compound 568] the EC50 (SJSA-1) was 5 to 15 µM.
`CC(=O)N[C@@H](CC(C)C)C(=O)N[C@H](C(=O)N[C@@H](Cc1ccccc1)C(=O)N[C@]1(C)CCCCCCC=CCCC[C@@](C)(C(=O)N[C@@H](C)C(=O)N[C@@H](C)C(=O)N[C@H](C)C(=O)N[C@@H](C)C(=O)N[C@@H](C)C(=O)N[C@H](C)C(N)=O)NC(=O)[C@H](CC(C)C)NC(=O)[C@H](CCC(N)=O)NC(=O)[C@H](C)NC(=O)[C@H](Cc2c[nH]c3ccccc23)NC(=O)[C@H](Cc2ccc(O)cc2)NC(=O)[C@H](CCC(=O)O)NC1=O)[C@@H](C)O` [compound 569] showed an EC50 (SJSA-1) of less than 5 µM.
Work on `CC(=O)N[C@@H](CC(C)C)C(=O)N[C@H](C(=O)N[C@@H](Cc1ccccc1)C(=O)N[C@]1(C)CCCCCC/C=C/CCC[C@@](C)(C(=O)N[C@@H](C)C(=O)N[C@@H](C)C(=O)N[C@@H](C)C(=O)N[C@@H](C)C(=O)N[C@H](C)C(=O)N[C@H](C)C(N)=O)NC(=O)[C@H](CC(C)C)NC(=O)[C@H](CCC(N)=O)NC(=O)[C@H](C)NC(=O)[C@H](Cc2c[nH]c3ccccc23)NC(=O)[C@H](Cc2ccc(O)cc2)NC(=O)[C@H](CCC(=O)O)NC1=O)[C@@H](C)O` [compound 572] yielded an EC50 (SJSA-1) of less than 5 µM.
`CC(=O)N[C@@H](CC(C)C)C(=O)N[C@H](C(=O)N[C@@H](Cc1ccccc1)C(=O)N[C@]1(C)CCCCCC/C=C/CCC[C@@](C)(C(=O)N[C@@H](C)C(=O)N[C@@H](C)C(=O)N[C@@H](C)C(=O)N[C@@H](C)C(=O)N[C@@H](C)C(=O)N[C@@H](C)C(N)=O)NC(=O)[C@H](CC(C)C)NC(=O)[C@H](CCC(N)=O)NC(=O)[C@H](C)NC(=O)[C@H](Cc2c[nH]c3ccccc23)NC(=O)[C@H](Cc2ccc(O)cc2)NC(=O)[C@H](CCC(=O)O)NC1=O)[C@@H](C)O` [compound 573] gave an EC50 (SJSA-1) of less than 5 µM.
`CC(=O)N[C@@H](CC(C)C)C(=O)N[C@H](C(=O)N[C@@H](Cc1ccccc1)C(=O)N[C@]1(C)CCCC=CCCCCCC[C@@](C)(C(=O)N[C@@H](C)C(=O)N[C@@H](C)C(=O)N[C@@H](C)C(=O)N[C@@H](C)C(=O)N[C@@H](C)C(=O)N[C@H](C)C(N)=O)NC(=O)[C@H](CC(C)C)NC(=O)[C@H](CCC(N)=O)NC(=O)[C@H](C)NC(=O)[C@H](Cc2c[nH]c3ccccc23)NC(=O)[C@H](Cc2ccc(O)cc2)NC(=O)[C@H](CCC(=O)O)NC1=O)[C@@H](C)O` [compound 631] (Ac-LTF[R5]EYWAQL[S8]AAAAA[dA]-NH2; staple 4-11) showed an EC50 (SJSA-1) of less than 5 µM.
